Data from patent publication US8871753B2, “Macrocyclic compounds and their use as kinase inhibitors” (Incyte Corporation, priority 2008, dated 2014).
Where a name gives a salt, the structure may show the parent alone.

Legend:
Format in all cases: biochemical
[1] = biological target: T1, human JAK1 (a.a. 837-1142) (Homo sapiens, UniProt P23458); assay: In vitro JAK kinase assay (HTRF, phosphorylation of a biotinylated peptide), JAK1; conditions: method AA1 (90 μM ATP) or AA2 (1000 μM ATP), not stated per value; read-out: JAK1 IC50
T1 construct: human JAK1 (a.a. 837-1142); His tag (N); made in house; host or cells: insect cells (baculovirus)
Procedure, shortened: (§1)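 Kinase reactions ran at room temperature for 1 h with ATP matched per isoform (JAK1 90 μM, JAK2 30 μM, JAK3 3 μM). After an EDTA stop, the phosphorylated biotin-peptide was read by HTRF using Eu-Py20 and SA-APC after 40 min binding.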

[2] = biological target: T2, human JAK2 (a.a. 828-1132) (Homo sapiens, UniProt O60674); assay: In vitro JAK kinase assay (HTRF, phosphorylation of a biotinylated peptide), JAK2; conditions: method AA1 (30 μM ATP) or AA2 (1000 μM ATP), not stated per value
T2 construct: JAK2 (a.a. 828-1132); His tag (N); made in house; host or cells: insect cells (baculovirus)
Procedure, shortened: as §1

[3] = biological target: T3, human JAK3 (a.a. 781-1124) (Homo sapiens, UniProt P52333); assay: In vitro JAK kinase assay (HTRF, phosphorylation of a biotinylated peptide), JAK3; conditions: method AA1 (3 μM ATP) or AA2 (1000 μM ATP), not stated per value
T3 construct: JAK3 (a.a. 781-1124); His tag (N); made in house; host or cells: insect cells (baculovirus)
Procedure, shortened: as §1

TYK2 = TYK2 (Homo sapiens, UniProt P29597); assay: TYK2 kinase inhibition (Table A1)
[4] = biological target: T4, Recombinant Human Anaplastic Lymphoma Kinase (Homo sapiens, UniProt Q9UM73); assay: ALK HTRF kinase assay; conditions: compound at 500 nM or 1 mM; 90 μM ATP
T4 construct: purchased Invitrogen, Carlsbad, Calif
Procedure, shortened: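 Compounds were incubated with recombinant human ALK and a biotin-tagged peptide substrate. Product was captured with streptavidin-APC and probed with a europium anti-phosphotyrosine antibody, and plates were read for time-resolved fluorescence. Dose-response data were fitted to derive IC50.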

T3 sequence (P52333 781-1124): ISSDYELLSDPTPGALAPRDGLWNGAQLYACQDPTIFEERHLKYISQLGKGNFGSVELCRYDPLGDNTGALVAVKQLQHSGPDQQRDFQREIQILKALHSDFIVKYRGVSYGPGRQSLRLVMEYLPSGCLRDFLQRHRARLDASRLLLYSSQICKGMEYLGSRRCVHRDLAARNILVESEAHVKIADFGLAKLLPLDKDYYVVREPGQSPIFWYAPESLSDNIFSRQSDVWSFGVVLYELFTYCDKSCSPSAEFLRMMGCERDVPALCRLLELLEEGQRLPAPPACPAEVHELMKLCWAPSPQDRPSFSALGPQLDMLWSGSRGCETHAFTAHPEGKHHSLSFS
T2 sequence (O60674 828-1132): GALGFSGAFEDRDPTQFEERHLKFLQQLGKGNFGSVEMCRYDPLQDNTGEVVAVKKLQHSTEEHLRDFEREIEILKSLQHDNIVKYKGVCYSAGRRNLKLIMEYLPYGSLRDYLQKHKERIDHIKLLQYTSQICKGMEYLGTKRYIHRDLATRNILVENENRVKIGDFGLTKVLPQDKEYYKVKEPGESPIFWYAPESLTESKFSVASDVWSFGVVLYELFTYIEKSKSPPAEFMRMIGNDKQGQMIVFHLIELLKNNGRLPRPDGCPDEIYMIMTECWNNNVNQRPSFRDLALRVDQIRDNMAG
T4 sequence (Q9UM73 19-1620): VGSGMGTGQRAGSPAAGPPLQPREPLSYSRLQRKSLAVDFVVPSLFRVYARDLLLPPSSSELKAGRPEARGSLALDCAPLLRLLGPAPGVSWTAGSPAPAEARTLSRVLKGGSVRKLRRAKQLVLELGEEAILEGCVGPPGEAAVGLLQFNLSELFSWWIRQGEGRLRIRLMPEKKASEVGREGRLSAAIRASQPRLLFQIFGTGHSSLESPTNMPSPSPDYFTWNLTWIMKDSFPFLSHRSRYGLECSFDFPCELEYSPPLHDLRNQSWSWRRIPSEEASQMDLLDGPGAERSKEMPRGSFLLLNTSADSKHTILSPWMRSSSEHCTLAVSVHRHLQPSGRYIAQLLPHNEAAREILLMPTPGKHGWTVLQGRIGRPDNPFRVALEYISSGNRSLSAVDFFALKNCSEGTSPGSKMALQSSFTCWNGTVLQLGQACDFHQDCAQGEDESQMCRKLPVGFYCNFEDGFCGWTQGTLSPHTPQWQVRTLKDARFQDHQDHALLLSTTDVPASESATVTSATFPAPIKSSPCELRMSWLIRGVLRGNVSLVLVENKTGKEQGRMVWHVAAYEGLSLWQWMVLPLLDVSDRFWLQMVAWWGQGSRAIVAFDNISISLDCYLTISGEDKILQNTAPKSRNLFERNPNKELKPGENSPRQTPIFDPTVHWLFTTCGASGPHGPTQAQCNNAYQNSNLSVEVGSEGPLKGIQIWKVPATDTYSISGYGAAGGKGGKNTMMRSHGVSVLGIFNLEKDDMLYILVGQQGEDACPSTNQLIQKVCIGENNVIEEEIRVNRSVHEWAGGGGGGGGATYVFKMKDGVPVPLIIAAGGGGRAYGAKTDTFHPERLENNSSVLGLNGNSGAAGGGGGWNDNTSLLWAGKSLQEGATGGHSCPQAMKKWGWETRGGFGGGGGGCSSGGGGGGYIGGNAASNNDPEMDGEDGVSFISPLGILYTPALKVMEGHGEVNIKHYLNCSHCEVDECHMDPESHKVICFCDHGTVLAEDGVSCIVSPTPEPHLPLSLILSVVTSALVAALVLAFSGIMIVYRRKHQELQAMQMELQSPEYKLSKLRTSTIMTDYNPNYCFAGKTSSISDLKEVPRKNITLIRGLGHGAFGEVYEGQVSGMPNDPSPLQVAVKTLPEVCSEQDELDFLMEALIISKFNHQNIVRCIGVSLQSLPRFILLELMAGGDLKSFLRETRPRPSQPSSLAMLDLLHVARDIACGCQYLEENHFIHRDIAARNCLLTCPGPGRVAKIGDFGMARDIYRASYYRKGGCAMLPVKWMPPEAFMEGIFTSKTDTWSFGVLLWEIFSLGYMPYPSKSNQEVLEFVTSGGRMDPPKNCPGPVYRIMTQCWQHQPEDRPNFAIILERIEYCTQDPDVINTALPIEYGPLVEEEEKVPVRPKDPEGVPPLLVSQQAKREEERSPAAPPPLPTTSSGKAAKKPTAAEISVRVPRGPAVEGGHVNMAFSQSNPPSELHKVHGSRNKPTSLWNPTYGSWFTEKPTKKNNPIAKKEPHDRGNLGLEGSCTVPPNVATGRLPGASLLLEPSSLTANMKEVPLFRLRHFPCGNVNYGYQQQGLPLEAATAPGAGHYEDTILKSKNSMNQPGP
T1 sequence (P23458 849-1154): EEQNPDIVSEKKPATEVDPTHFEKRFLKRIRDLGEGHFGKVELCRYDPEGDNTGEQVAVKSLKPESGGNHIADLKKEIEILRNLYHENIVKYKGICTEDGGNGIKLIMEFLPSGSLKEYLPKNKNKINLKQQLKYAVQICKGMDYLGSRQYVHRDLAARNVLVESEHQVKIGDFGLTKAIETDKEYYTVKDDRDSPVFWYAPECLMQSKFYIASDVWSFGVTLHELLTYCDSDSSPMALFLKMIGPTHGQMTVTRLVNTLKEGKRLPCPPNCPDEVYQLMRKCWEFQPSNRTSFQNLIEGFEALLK
Chain of TYK2 (P29597 whole entry): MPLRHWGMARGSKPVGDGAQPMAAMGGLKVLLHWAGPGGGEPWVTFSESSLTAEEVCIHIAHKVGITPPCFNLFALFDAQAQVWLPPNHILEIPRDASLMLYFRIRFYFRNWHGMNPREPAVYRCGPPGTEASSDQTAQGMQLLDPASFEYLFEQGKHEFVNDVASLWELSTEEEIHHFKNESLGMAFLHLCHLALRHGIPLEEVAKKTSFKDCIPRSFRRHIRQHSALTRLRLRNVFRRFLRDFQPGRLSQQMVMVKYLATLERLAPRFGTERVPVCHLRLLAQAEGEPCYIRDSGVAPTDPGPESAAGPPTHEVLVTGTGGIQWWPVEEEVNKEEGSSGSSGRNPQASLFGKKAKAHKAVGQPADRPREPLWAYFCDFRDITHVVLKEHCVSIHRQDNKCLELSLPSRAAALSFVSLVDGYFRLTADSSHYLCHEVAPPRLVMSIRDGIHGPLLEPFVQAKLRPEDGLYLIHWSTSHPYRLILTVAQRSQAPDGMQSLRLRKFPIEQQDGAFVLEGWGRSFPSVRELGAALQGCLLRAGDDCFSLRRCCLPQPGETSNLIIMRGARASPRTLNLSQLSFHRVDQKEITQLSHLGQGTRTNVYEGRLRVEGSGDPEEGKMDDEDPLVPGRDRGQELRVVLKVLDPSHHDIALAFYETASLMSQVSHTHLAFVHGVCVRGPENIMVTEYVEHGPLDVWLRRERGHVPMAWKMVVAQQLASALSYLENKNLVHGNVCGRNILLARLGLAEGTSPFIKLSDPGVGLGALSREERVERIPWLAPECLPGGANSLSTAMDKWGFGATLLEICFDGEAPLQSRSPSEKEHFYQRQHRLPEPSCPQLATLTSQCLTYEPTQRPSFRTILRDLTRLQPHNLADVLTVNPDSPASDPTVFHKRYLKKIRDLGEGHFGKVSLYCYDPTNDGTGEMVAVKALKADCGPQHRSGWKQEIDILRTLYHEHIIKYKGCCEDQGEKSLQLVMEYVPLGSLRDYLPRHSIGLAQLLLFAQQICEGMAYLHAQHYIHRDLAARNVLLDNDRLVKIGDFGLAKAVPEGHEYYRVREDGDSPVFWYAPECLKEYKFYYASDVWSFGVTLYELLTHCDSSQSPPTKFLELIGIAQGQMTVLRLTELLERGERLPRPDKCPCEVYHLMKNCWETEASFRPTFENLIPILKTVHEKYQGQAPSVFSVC

SMILES | IC50 [1] [nM] | IC50 [2] [nM] | IC50 [3] [nM] | IC50 (TYK2) [nM] | ALK % of inhibition at a concentration of 500 nM or 1 mM [4] [%]
CN(C)C(=O)N1CCC(CC(=O)Nc2ccc3cc2CCc2cccc(c2)Nc2ncc(Cl)c(n2)N3)CC1 [Example A80, 4-(2-{[6-Chloro-2,4,8,22-tetraazatetracyclo[14.3.1.1(3,7).1(9,13)]docosa-1(20),3(22),4,6,9(21),10,12,16,18-nonaen-12-yl]amino}-2-oxoethyl)-N,N-dimethylpiperidine-1-carboxamide trifluoroacetate] | 8.1 | 4.4 | 62 | 5.3 | 21
CN(C)S(=O)(=O)N1CCC(CC(=O)Nc2ccc3cc2CCc2cccc(c2)Nc2ncc(Cl)c(n2)N3)CC1 [Example A81, N-[6-Chloro-2,4,8,22-tetraazatetracyclo[14.3.1.1(3,7).1(9,13)]docosa-1(20),3(22),4,6,9(21),10,12,16,18-nonaen-12-yl]-2-{1-[(dimethylamino)sulfonyl]piperidin-4-yl}acetamide trifluoroacetate] | 4.7 | 1.6 | 24 | 4.3 | 29
CC(C)S(=O)(=O)N1CCC(CC(=O)Nc2ccc3cc2CCc2cccc(c2)Nc2ncc(Cl)c(n2)N3)CC1 [Example A82, N-[6-Chloro-2,4,8,22-tetraazatetracyclo[14.3.1.1(3,7).1(9,13)]docosa-1(20),3(22),4,6,9(21),10,12,16,18-nonaen-12-yl]-2-[1-(isopropylsulfonyl)piperidin-4-yl]acetamide trifluoroacetate] | 7.3 | 3.7 | 17 | 13 | 31
CCS(=O)(=O)N1CCC(CC(=O)Nc2ccc3cc2CCc2cccc(c2)Nc2ncc(Cl)c(n2)N3)CC1 [Example A83, N-[6-Chloro-2,4,8,22-tetraazatetracyclo[14.3.1.1(3,7).1(9,13)]docosa-1(20),3(22),4,6,9(21),10,12,16,18-nonaen-12-yl]-2-[1-(ethylsulfonyl)piperidin-4-yl]acetamide trifluoroacetate] | 1.9 | 2.5 | 12 | 2.5 | 41
CC(C)NC(=O)N1CCC(CC(=O)Nc2ccc3cc2CCc2cccc(c2)Nc2ncc(Cl)c(n2)N3)CC1 [Example A84, 4-(2-{[6-Chloro-2,4,8,22-tetraazatetracyclo[14.3.1.1(3,7).1(9,13)]docosa-1(20),3(22),4,6,9(21),10,12,16,18-nonaen-12-yl]amino}-2-oxoethyl)-N-isopropylpiperidine-1-carboxamide trifluoroacetate] | 24 | 9 | 49 | 16 | 31
CC(C)(C)NC(=O)N1CCC(CC(=O)Nc2ccc3cc2CCc2cccc(c2)Nc2ncc(Cl)c(n2)N3)CC1 [Example A85, N-(tert-Butyl)-4-(2-{[6-chloro-2,4,8,22-tetraazatetracyclo[14.3.1.1(3,7).1(9,13)]docosa-1(20),3(22),4,6,9(21),10,12,16,18-nonaen-12-yl]amino}-2-oxoethyl)piperidine-1-carboxamide trifluoroacetate] | 49 | 13 | 147 | 33 | 19
Cc1cc(C(=O)N2CCC(CC(=O)Nc3ccc4cc3CCc3cccc(c3)Nc3ncc(Cl)c(n3)N4)CC2)no1 [Example A86, N-[6-Chloro-2,4,8,22-tetraazatetracyclo[14.3.1.1(3,7).1(9,13)]docosa-1(20),3(22),4,6,9(21),10,12,16,18-nonaen-12-yl]-2-{1-[(5-methylisoxazol-3-yl)carbonyl]piperidin-4-yl}acetamide trifluoroacetate] | 0.8 | 2.2 | 29 | 1.5 | 32
O=C(CC1CCN(C(=O)c2cnccn2)CC1)Nc1ccc2cc1CCc1cccc(c1)Nc1ncc(Cl)c(n1)N2 [Example A87, N-[6-Chloro-2,4,8,22-tetraazatetracyclo[14.3.1.1(3,7).1(9,13)]docosa-1(20),3(22),4,6,9(21),10,12,16,18-nonaen-12-yl]-2-[1-(pyrazin-2-ylcarbonyl)piperidin-4-yl]acetamide bis(trifluoroacetate)] | 14 | 9.8 | 56 | 12 | 31
CC(C)(C)C(=O)N1CCC(CC(=O)Nc2ccc3cc2CCc2cccc(c2)Nc2ncc(Cl)c(n2)N3)CC1 [Example A88, N-[6-Chloro-2,4,8,22-tetraazatetracyclo[14.3.1.1(3,7).1(9,13)]docosa-1(20),3(22),4,6,9(21),10,12,16,18-nonaen-12-yl]-2-[1-(2,2-dimethylpropanoyl)piperidin-4-yl]acetamide trifluoroacetate] | 14 | 24 | 86 | 47 | 22
CC(C)C(=O)N1CCC(CC(=O)Nc2ccc3cc2CCc2cccc(c2)Nc2ncc(Cl)c(n2)N3)CC1 [Example A89, N-[6-Chloro-2,4,8,22-tetraazatetracyclo[14.3.1.1(3,7).1(9,13)]docosa-1(20),3(22),4,6,9(21),10,12,16,18-nonaen-12-yl]-2-(1-isobutyrylpiperidin-4-yl)acetamide trifluoroacetate] | 6.5 | 3.7 | 57 | 3 | 29
CCC(=O)N1CCC(CC(=O)Nc2ccc3cc2CCc2cccc(c2)Nc2ncc(Cl)c(n2)N3)CC1 [Example A90, N-[6-Chloro-2,4,8,22-tetraazatetracyclo[14.3.1.1(3,7).1(9,13)]docosa-1(20), 3(22),4,6,9(21),10,12,16,18-nonaen-12-yl]-2-(1-propionylpiperidin-4-yl)acetamide trifluoroacetate] | 4.9 | 5.4 | 68 | 4.9 | 30
CS(=O)(=O)N1CCC(CC(=O)Nc2ccc3cc2CCc2cncc(c2)Nc2ncc(Cl)c(n2)N3)C1 (centres unmarked) [Example A91, N-[6-Chloro-2,4,8,18,22-pentaazatetracyclo[14.3.1.1(3,7).1(9,13)]docosa-1(20),3(22),4,6,9(21),10,12,16,18-nonaen-12-yl]-2-[1-(methylsulfonyl)pyrrolidin-3-yl]acetamide bis(trifluoroacetate)] | 3.7 | 5.9 | 44 | 14 | 29
O=C(CC1CCN(C(=O)Nc2ccccc2)C1)Nc1ccc2cc1CCc1cncc(c1)Nc1ncc(Cl)c(n1)N2 (centres unmarked) [Example A92, 3-(2-{[6-Chloro-2,4,8,18,22-pentaazatetracyclo[14.3.1.1(3,7).1(9,13)]docosa-1(20),3(22),4,6,9(21),10,12,16,18-nonaen-12-yl]amino}-2-oxoethyl)-N-phenylpyrrolidine-1-carboxamide bis(trifluoroacetate)] | 1.4 | 6.1 | 79 | 21 | 61
CNC(=O)N1CCC(CC(=O)Nc2ccc3cc2CCc2cncc(c2)Nc2ncc(Cl)c(n2)N3)C1 (centres unmarked) [Example A93, 3-(2-{[6-Chloro-2,4,8,18,22-pentaazatetracyclo[14.3.1.1(3,7).1(9,13)]docosa-1(20),3(22),4,6,9(21),10,12,16,18-nonaen-12-yl]amino}-2-oxoethyl)-N-methylpyrrolidine-1-carboxamide bis(trifluoroacetate)] | 22 | 24 | 112 | 43 | 30
CC(=O)N1CCC(CC(=O)Nc2ccc3cc2CCc2cncc(c2)Nc2ncc(Cl)c(n2)N3)C1 (centres unmarked) [Example A94, 2-(1-Acetylpyrrolidin-3-yl)-N-[6-chloro-2,4,8,18,22-pentaazatetracyclo[14.3.1.1(3,7).1(9,13)]docosa-1(20),3(22),4,6,9(21),10,12,16,18-nonaen-12-yl]acetamide bis(trifluoroacetate)] | 21 | 17 | 86 | 32 | 26
CN(C)C(=O)N1CCC(CC(=O)Nc2ccc3cc2CCc2cncc(c2)Nc2ncc(Cl)c(n2)N3)CC1 [Example A95, 4-(2-{[6-Chloro-2,4,8,18,22-pentaazatetracyclo[14.3.1.1(3,7).1(9,13)]docosa-1(20),3(22),4,6,9(21),10,12,16,18-nonaen-12-yl]amino}-2-oxoethyl)-N,N-dimethylpiperidine-1-carboxamide bis(trifluoroacetate)] | 9.1 | 23 | 160 | 9 | 18
